Melting point data for four compounds are collected here from US7053078B2, “Serine protease inhibitors” (Eli Lilly and Company, priority 2000, dated 2006).

The structures appear in SMILES notation.

As for `CCN1CCC(C(=O)NC[C@H](NC(=O)c2ccc(OC)cc2)c2ccccc2)CC1`, the melting point was 245 to 251 °C.
In turn, `COc1ccc(C(=O)N[C@@H](CNC(=O)C2CCN(C3CCCC3)CC2)c2ccccc2)cc1` displayed a melting point of 253 to 257 °C.
To `COc1ccc(C(=O)N[C@@H](CNC(=O)C2CCN(C3CCN(C)CC3)CC2)c2ccccc2)cc1` belongs 252 to 259 °C; to `COc1ccc(C(=O)N[C@@H](CNC(=O)C2CCN(C3CCCCC3)CC2)c2ccccc2)cc1`, 239 to 243 °C.

The term melting point denotes the temperature, or range, at which the solid turns liquid.
